One substance from patent US4757055A, “Method for selectively controlling unwanted expression or function of foreign nucleic acids in animal or mammalian cells” (The Johns Hopkins University, priority 1984, dated 1988) can be followed below.

One assay deals with E. coli B. The assay can be described thus: Colony formation by E. coli B (Example 1). The following applies: 37° C. Type of assay: cell-based. As to the method: (1) E. coli, E. coli B was grown in M-9 medium supplemented with glucose ([…]) and 1% casamino acids. The cells were harvested in mid-log phase and resuspended in 50 μL of fresh medium containing 0-160 μM oligomer at a final cell density of 1×10^4 cells/mL. The cells were incubated for 1 h at 37° C. and then diluted with 0.9 mL of medium. A 0.8-mL aliquot was added to 2.5 mL of 0.8% Bactoagar at 45° C. This solution was quickly poured onto a 100-mm plate containing solid 1.2% Bactoagar. After solidification, the plates were incubated overnight at 37° C. and the resulting colonies were counted.

Assay [1] has as its system transformed human fibroblast (HTB 1080) cells. Nature of the assay: Colony formation by transformed human fibroblasts (Example 1). In kind it is cell-based. The note with it: 50 μM; 37° C. On the procedure: (2) Transformed Syrian Hamster Embryonic Fibroblasts (BP-6) and Transformed Human Fibroblasts (HTB1080). Colony formation by the fibroblasts in the presence of the methylphosphonate analogues was carried out as described by Miller et al, Biochemistry 16, 1988 (1977).

On to d-ApT, for which the “% inhibition of colony formation, E. coli B” value in the assay with E. coli B (50 μM) came out at 4%; in the assay with E. coli B (160 μM), 5%. Moreover, the “% inhibition of colony formation, HBT 1080” value in assay [1] is listed as 12%.
